Data taken from patent US20250281453A1, “COMBINATION THERAPIES COMPRISING QTX125” (QUIMATRYX, S.L., priority 2022, published 2025).

Experiments:
[1] = Pharmacokinetic properties; type: in vivo; conditions: compared with other histone deacetylase inhibitors
[2] = system: Panc-1 pancreatic cancer cells; test: Cell viability, ALAMAR blue assay, monotherapy; type: cell-based
Protocol: (§1) In brief, HCT-116, MiaPaCa-2 and Panc-1 cells were thawed in high glucose DMEM (Sigma D5796) with 10% heat-inactivated Foetal Calf Serum (FCS) (PAA, A15-101)). Hep-G2 and SK-Hep1 cells were thawed in Minimum Essential Media (MEM) (Sigma M2279) with 1% non-essential amino acids (Sigma M7145), 2 mM Glutamine (Sigma G7513) and 10% FCS. SK-OV-3 cells were thawed in McCoy's 5A medium (Sigma, M8403) with 15% FCS. All cells were passaged by washing once in cation-free dPBS (Sigma, D1408), and incubated for 3 minutes with trypsin ([0.5 μg/ml]/EDTA [0.2 μg/ml] (Sigma, T4174) in dPBS). Passage was completed at 37° C., and cells were transferred to the appropriate media. Prior to seeding at defined cell density, cells were recovered in medium, centrifuged and resuspended for counting.
(§2) To prepare cells for viability assays, cells were transferred into 96 well tissue culture plates (Cultek), and resuspended in 100 µL at the following densities: 10,000 cells/well (Hep-G2 and MiaPaCa-2), 5000 cells/well (Panc-1 and SK-OV-3) or 3000 cells/well (HCT-116). Following 24 hours of incubation, media was removed and replaced with 100 µL media spiked with QTX125 and the test chemotherapeutic agents. Stock solutions for the agents used in this study are shown below in Table 1. Cells were incubated for a further 72 hours before cell viability was assessed using both ALAMAR® and hexosaminidase assays.
(§3) For the ALAMAR® blue assay, media containing QTX125 and the test chemotherapeutic agents was removed, and cells were stained using ALAMAR® blue (BioSource DAL 1100) for 4 hours at 37° C., following the manufacturer's instructions. Relative fluorescent intensity was measured using a Cytofluor® plate reader (Millipore) at 535/590 nm (Excitation/emission). This measure directly correlates with the number of viable cells present in each well.
(§4) A number of appropriate control samples were included. First, absorbance values measured in reagent ‘blank’ wells (containing cell culture medium and colorimetric agent only) were subtracted from ‘test’ sample-containing wells. ‘Blank’ absorbance values were routinely between 5 and 10% of the values recorded in test wells. Absorbance values recorded in test wells were then compared against wells containing (i) cells stimulated with QTX125 only; (ii) cells stimulated with sorafenib, gemcitabine or bortezomib only and/or (iii) unstimulated cells, as appropriate.
(§5) Control values were normalised to 100% and percentage (%) viability was calculated. Data were used to plot log dose-response curves using a sigmoid dose-response (variable slope) equation. EC50 values were obtained using Equation 1, where ‘X’ is the logarithmic concentration; ‘Y’ is the response output and it is assumed that Y starts at bottom of the graph and reaches the top with an overall sigmoid shape.
(§6) Prior to assessing the oncolytic efficacy of QTX125-containing combination therapies, the oncolytic effect of each test agent was assessed in isolation. Dose-response curves were produced by serial dilution (1:1), thereby allowing monotherapy EC50 values to be calculated.
(§7) Chemotherapeutic agents were added to wells at a starting concentration of 100 μM. However, it was quickly determined that it was not possible to use this range for all chemotherapeutic agents tested. An optimization study was therefore completed to identify suitable maximum (‘high’) doses for each agent and in each individual cell line.

[3] = system: MiaPaCa-2 pancreatic cancer cells; test: Cell viability, ALAMAR blue assay, monotherapy; type: cell-based
Protocol: as §1, §2, §3, §4, §5, §6, §7

[4] = system: SK-OV-3 ovarian cancer cells; test: Cell viability, ALAMAR blue assay, monotherapy; type: cell-based
Protocol: as §1, §2, §3, §4, §5, §6, §7

[5] = system: HCT-116 colonic cancer cells; test: Cell viability, ALAMAR blue assay, monotherapy; type: cell-based
Protocol: as §1, §2, §3, §4, §5, §6, §7

[6] = system: Hep-G2 hepatic cancer cells; test: Cell viability, ALAMAR blue assay, monotherapy; type: cell-based
Protocol: as §1, §2, §3, §4, §5, §6, §7

[7] = 72 hours of high-dose monotherapy (Table 2: QTX125 100, sorafenib 100, gemcitabine 100, bortezomib 1 μM)
[8] = Homo sapiens, 72 h, read-out: EC50 dose of monotherapy

EC50 [2, 8]: 1400 ± 150 nM | EC50 ([3]; Homo sapiens, MIA PaCa-2, 72 h, 72 h, read-out: EC50 dose of monotherapy): 1790 ± 50 nM | EC50 [4, 8]: 3000 ± 400 nM | EC50 [5, 8]: 330 nM | EC50 ([6]; Homo sapiens, HepG2, 72 h, read-out: EC50 dose of monotherapy): 910 ± 200 nM
SMILES: O=C(NO)c1ccc(CNC(=O)c2[nH]c(-c3ccc(O)cc3)cc2-c2ccoc2)cc1 [QTX125, 3-(3-Furyl)-N-{4-[(hydroxyamino)carbonyl]benzyl}-5-(4-hydroxyphenyl)-1 Hpyrrole-2-carboxamide]
pharmacokinetic properties (half-lives and distribution volumes) [1]: higher half-lives and distribution volumes | percentage (%) cell viabilities [2, 7]: 0.0% | percentage (%) cell viabilities [3, 7]: 0.0% | percentage (%) cell viabilities ([4]; 72 hours of high-dose monotherapy (Table 2: QTX125 10, sorafenib 100, gemcitabine 10, bortezomib 1 μM)): 0.0% | percentage (%) cell viabilities ([5]; 72 hours of high-dose monotherapy (Table 2: QTX125 1, sorafenib 100, gemcitabine 10, bortezomib 1 μM)): 0.0% | percentage (%) cell viabilities ([6]; 72 hours of high-dose monotherapy (Table 2: QTX125 5, sorafenib 100, gemcitabine 100, bortezomib 1 μM)): 0.0%
